Data on 21 molecules can be found in patent publication US20180370927A1, “MICROBIOCIDAL OXADIAZOLE DERIVATIVES” (SYNGENTA PARTICIPATIONS AG, priority 2015, published 2018).

Where two headings read alike, the source gives them in different places.

The subject of data set [1] is Glomerella lacenarium (Colletotrichum lacenarium). The data set is described as follows: Glomerella lacenarium (Colletotrichum lacenarium) liquid culture / cucumber / preventative (anthracnose). The data set is classed as cell-based. To be noted: read-out: disease control (inhibition of growth, photometric) compared to untreated control. Put shortly: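 At 20 ppm in the applied formulation, compounds were mixed with fungal spores in potato dextrose broth and held at 24° C. After 3–4 days, photometric growth measurement gave percent antifungal activity relative to untreated control.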

Data set [2] has as its system Puccinia recondita f. Sp. Tritici. The data set is described as follows: Puccinia recondita f. sp. tritici / wheat / leaf disc preventative (brown rust). The data set is classed as in vivo. To be noted: foliar, read-out: disease control compared to untreated control leaf disks. Put shortly: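 Wheat cv. Kanzler leaf segments on agar sprayed with formulated compound in water, inoculated with rust spores 1 day later. Incubated at 19° C, 75% rh, 12 h light/12 h dark; percent disease control versus untreated scored 7 to 9 days after application; tested at 200 ppm.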

A further data set relates to Phakopsora pachyrhizi. As to the kind of experiment: Phakopsora pachyrhizi / soybean / leaf disc preventative (Asian soybean rust). It is filed as in vivo. To be noted: foliar, 200 ppm in the applied formulation, soybean leaf disks, assessed 12 to 14 days after application, read-out: disease control compared to untreated control leaf disks. The essentials:
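Soybean leaf discs on water agar were sprayed with formulated compound diluted in water, then inoculated one day later with spore suspension on the lower leaf surface. Held 24-36 h dark at 20° C., 75% RH, then 12 h light/day; percent disease control versus untreated scored 12 to 14 days after application.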

The test system of data set [3] is Puccinia recondita f. Sp. Tritici. As to the kind of experiment: Puccinia recondita f. sp. tritici / wheat / leaf disc curative (brown rust). To be noted: foliar, read-out: disease control compared to untreated control leaf disks. The data set is classed as in vivo. Put shortly:
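Curative treatment: formulated compound in water was applied 1 day post-inoculation to spore-inoculated wheat cv. Kanzler segments held on agar. Segments stayed at 19° C and 75% relative humidity (12 h photoperiod after application), and disease control relative to untreated checks was assessed 6 to 8 days later.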

The mark [4] stands for this setting: 20 ppm in the applied formulation, liquid culture in PDB, 24° C., 3 to 4 days after application.
Setting [5] is: 200 ppm in the applied formulation, wheat leaf segments, preventative, assessed 7 to 9 days after application.
Setting [6] is: 200 ppm in the applied formulation, wheat leaf segments, curative (applied 1 day after inoculation), assessed 6 to 8 days after application.

For orientation: inhibition means the drop in the measured response relative to a control, in per cent. A word on the melting point: it is the temperature, or range, at which the solid turns liquid. `O=C(NCc1ccc(-c2noc(C(F)(F)F)n2)cc1)C(=O)OC1CCSC1` (centres unmarked) [Compound 3.6, tetrahydrothiophen-3-yl 2-oxo-2-[[4-[5-(trifluoromethyl)-1,2,4-oxadiazol-3-yl]phenyl]methylamino]acetate] registered a melting point of 102 to 105 °C. Besides, the inhibition at 20 ppm in data set [1] (setting [4]) is at least 80%. Further, the pest or weed control at 200 ppm in data set [2] (setting [5]) was at least 80%.

`CCOC(=O)C(=O)NCc1ccc(-c2noc(C(F)(F)F)n2)cc1` [Compound 3.9, ethyl 2-oxo-2-[[4-[5-(trifluoromethyl)-1,2,4-oxadiazol-3-yl]phenyl]methylamino] acetate] had a melting point of 112 to 116 °C. Further, the inhibition at 20 ppm in data set [1] (setting [4]) is at least 80%. Also, in the data set with Phakopsora pachyrhizi, the pest or weed control at 200 ppm is at least 80%. Moreover, the pest or weed control at 200 ppm in data set [2] (setting [5]) was at least 80%.

For `CO/N=C(\C#N)C(=O)NCc1ccc(-c2noc(C(F)(F)F)n2)cc1` [Compound 2.13, (1E)-N-methoxy-2-oxo-2-[[4-[5-(trifluoromethyl)-1,2,4-oxadiazol-3-yl]phenyl]methylamino] acetimidoyl cyanide], the melting point was 130 to 131 °C. Besides, in data set [1], the inhibition at 20 ppm was at least 80%.

Take `CCOCCOC(=O)C(=O)NCc1ccc(-c2noc(C(F)(F)F)n2)cc1` [Compound 3.4, 2-ethoxyethyl 2-oxo-2-[[4-[5-(trifluoromethyl)-1,2,4-oxadiazol-3-yl]phenyl]methylamino]acetate]: the melting point was 112 to 114 °C. The inhibition at 20 ppm in data set [1] (setting [4]) is at least 80%. Also, in data set [2] (setting [5]), the pest or weed control at 200 ppm was at least 80%.

Consider `CC(C)(C)C(=O)C(=O)NCc1ccc(-c2noc(C(F)(F)F)n2)cc1F` [Compound 1.40, N-[[2-fluoro-4-[5-(trifluoromethyl)-1,2,4-oxadiazol-3-yl]phenyl]methyl]-3,3-dimethyl-2-oxo-butanamide], for which the pest or weed control at 200 ppm (in data set [3] (setting [6]); with Phakopsora pachyrhizi; in data set [2] (setting [5])) was at least 80% throughout. In addition, in data set [1] (setting [4]), the inhibition at 20 ppm is at least 80%.

In the case of `CCN(CC)C(=O)C(=O)NCc1ccc(-c2noc(C(F)(F)F)n2)cc1` [Compound 4.52, N′,N′-diethyl-N-[[4-[5-(trifluoromethyl)-1,2,4-oxadiazol-3-yl]phenyl]methyl] oxamide], the pest or weed control at 200 ppm (in data set [3] (setting [6]); with Phakopsora pachyrhizi; in data set [2] (setting [5])) was at least 80% each time. In data set [1] (setting [4]), the inhibition at 20 ppm is at least 80%.

As to `CC(=O)C(=O)N(Cc1ccc(-c2noc(C(F)(F)F)n2)cc1)C1CC1` [Compound 1.91, N-cyclopropyl-2-oxo-N-[[4-[5-(trifluoromethyl)-1,2,4-oxadiazol-3-yl]phenyl]methyl]propanamide], the pest or weed control at 200 ppm (in data set [3] (setting [6]); in the data set with Phakopsora pachyrhizi; in data set [2] (setting [5])) was at least 80% each time. Also, in data set [1] (setting [4]), the inhibition at 20 ppm is at least 80%.

On to `CCCN(Cc1ccc(-c2noc(C(F)(F)F)n2)cc1)C(=O)C(=O)CC` [Compound 1.31, 2-oxo-N-propyl-N-[[4-[5-(trifluoromethyl)-1,2,4-oxadiazol-3-yl]phenyl]methyl]butanamide], for which the pest or weed control at 200 ppm (in data set [3] (setting [6]); in the data set with Phakopsora pachyrhizi; in data set [2] (setting [5])) was at least 80% each time. In addition, the inhibition at 20 ppm in data set [1] (setting [4]) was at least 80%.

For `CCC(=O)C(=O)N(Cc1ccc(-c2noc(C(F)(F)F)n2)cc1)C1CC1` [Compound 1.100, N-cyclopropyl-2-oxo-N-[[4-[5-(trifluoromethyl)-1,2,4-oxadiazol-3-yl]phenyl]methyl]butanamide], the pest or weed control at 200 ppm (in data set [3] (setting [6]); in the data set on Phakopsora pachyrhizi; in data set [2] (setting [5])) was at least 80% throughout. The inhibition at 20 ppm in data set [1] (setting [4]) was at least 80%.

Take `CN(C)C(=O)C(=O)NCc1ccc(-c2noc(C(F)(F)F)n2)c(F)c1F` [Compound 4.94, N-[[2,3-difluoro-4-[5-(trifluoromethyl)-1,2,4-oxadiazol-3-yl]phenyl]methyl]-N',N'-dimethyl-oxamide]: the pest or weed control at 200 ppm (in data set [3] (setting [6]); in the data set with Phakopsora pachyrhizi; in data set [2] (setting [5])) was at least 80% each time. Further, in data set [1] (setting [4]), the inhibition at 20 ppm was at least 80%.

The molecule `CO/N=C(\C#N)C(=O)N(Cc1ccc(-c2noc(C(F)(F)F)n2)cc1)OC` [Compound 2.14, (1E)-N-methoxy-2-[methoxy-[[4-[5-(trifluoromethyl)-1,2,4-oxadiazol-3-yl]phenyl]methyl]amino]-2-oxo-acetimidoyl cyanide] registered a melting point of 67 to 68 °C. Further, in data set [3], the pest or weed control at 200 ppm was at least 80%. Further, the inhibition at 20 ppm in data set [1] is at least 80%. Besides, the pest or weed control at 200 ppm in data set [2] was at least 80%.

As for `CCC(C)N(Cc1ccc(-c2noc(C(F)(F)F)n2)cc1)C(=O)C(C)=O` (centres unmarked) [Compound 1.12, 2-oxo-N-sec-butyl-N-[[4-[5-(trifluoromethyl)-1,2,4-oxadiazol-3-yl]phenyl]methyl]propanamide], the pest or weed control at 200 ppm (in data set [3] (setting [6]); in the data set on Phakopsora pachyrhizi; in data set [2] (setting [5])) was at least 80% each time. The inhibition at 20 ppm in data set [1] (setting [4]) was at least 80%.

As for `CCN(C)C(=O)C(=O)NCc1ccc(-c2noc(C(F)(F)F)n2)cc1` [Compound 4.54, N′-ethyl-N′-methyl-N-[[4-[5-(trifluoromethyl)-1,2,4-oxadiazol-3-yl]phenyl]methyl] oxamide], the pest or weed control at 200 ppm (in data set [3] (setting [6]); in the data set on Phakopsora pachyrhizi; in data set [2] (setting [5])) was at least 80% each time. In data set [1] (setting [4]), the inhibition at 20 ppm was at least 80%.

For `CC(C)CC(=O)C(=O)NCc1ccc(-c2noc(C(F)(F)F)n2)c(F)c1F` [Compound 1.47, N-[[2,3-difluoro-4-[5-(trifluoromethyl)-1,2,4-oxadiazol-3-yl]phenyl]methyl]-4-methyl-2-oxo-pentanamide], the pest or weed control at 200 ppm (in data set [3] (setting [6]); in the data set on Phakopsora pachyrhizi; in data set [2] (setting [5])) was at least 80% in each case. For the same molecule, in data set [1] (setting [4]), the inhibition at 20 ppm is at least 80%.

The molecule `CC1CCC(OC(=O)C(=O)NCc2ccc(-c3noc(C(F)(F)F)n3)cc2)C1` (centres unmarked) [Compound 3.5, (3-methylcyclopentyl) 2-oxo-2-[[4-[5-(trifluoromethyl)-1,2,4-oxadiazol-3-yl]phenyl]methylamino]acetate] yielded a melting point of 112 to 116 °C. For the same molecule, the inhibition at 20 ppm in data set [1] (setting [4]) is at least 80%. For the same molecule, the pest or weed control at 200 ppm in data set [2] (setting [5]) was at least 80%.

For the molecule `O=C(O)C(=O)NCc1ccc(-c2noc(C(F)(F)F)n2)cc1` [Compound 3.8, 2-oxo-2-[[4-[5-(trifluoromethyl)-1,2,4-oxadiazol-3-yl]phenyl]methylamino]acetic acid], the melting point was 162 to 173 °C. Besides, the pest or weed control at 200 ppm in the data set with Phakopsora pachyrhizi is at least 80%.

Turning to `CC(C)CC(=O)C(=O)NCc1ccc(-c2noc(C(F)(F)F)n2)c(F)c1` [Compound 1.43, N-[[3-fluoro-4-[5-(trifluoromethyl)-1,2,4-oxadiazol-3-yl]phenyl]methyl]-4-methyl-2-oxo-pentanamide], the pest or weed control at 200 ppm (in data set [3] (setting [6]); in the data set on Phakopsora pachyrhizi; in data set [2] (setting [5])) was at least 80% throughout. Further, in data set [1] (setting [4]), the inhibition at 20 ppm is at least 80%.

In the case of `C=CCN(Cc1ccc(-c2noc(C(F)(F)F)n2)cc1)C(=O)C(=O)N(C)C` [Compound 4.25, N′-allyl-N,N-dimethyl-N′-[[4-[5-(trifluoromethyl)-1,2,4-oxadiazol-3-yl]phenyl]methyl] oxamide], the pest or weed control at 200 ppm (in data set [3] (setting [6]); in the data set with Phakopsora pachyrhizi; in data set [2] (setting [5])) was at least 80% throughout. Further, the inhibition at 20 ppm in data set [1] (setting [4]) is at least 80%.

With `CON(Cc1ccc(-c2noc(C(F)(F)F)n2)cc1F)C(=O)C(=O)CC(C)C` [Compound 1.55, N-[[2-fluoro-4-[5-(trifluoromethyl)-1,2,4-oxadiazol-3-yl]phenyl]methyl]-N-methoxy-4-methyl-2-oxo-pentanamide], the pest or weed control at 200 ppm (in data set [3] (setting [6]); in the data set on Phakopsora pachyrhizi; in data set [2] (setting [5])) was at least 80% each time. In addition, the inhibition at 20 ppm in data set [1] (setting [4]) is at least 80%.

Consider `CCON(Cc1ccc(-c2noc(C(F)(F)F)n2)cc1)C(=O)C(=O)CC` [Compound 1.29, N-ethoxy-2-oxo-N-[[4-[5-(trifluoromethyl)-1,2,4-oxadiazol-3-yl]phenyl]methyl]butanamide], for which the pest or weed control at 200 ppm (in data set [3] (setting [6]); with Phakopsora pachyrhizi; in data set [2] (setting [5])) was at least 80% each time. For the same molecule, the inhibition at 20 ppm in data set [1] (setting [4]) is at least 80%.

For the molecule `CCN(Cc1ccc(-c2noc(C(F)(F)F)n2)cc1)C(=O)C(=O)N(C)OC` [Compound 4.106, N′-ethyl-N-methoxy-N-methyl-N′-[[4-[5-(trifluoromethyl)-1,2,4-oxadiazol-3-yl]phenyl]methyl] oxamide], the pest or weed control at 200 ppm (in data set [3] (setting [6]); in the data set with Phakopsora pachyrhizi; in data set [2] (setting [5])) was at least 80% in each case. Besides, the inhibition at 20 ppm in data set [1] (setting [4]) was at least 80%.
